Test [1] concerns phosphorylation of ERK in A427 cells. In words: Erk-phosphorylation assay (Phospho-ERK1/ERK2 ELISA). Type of test: cell-based, human. The note with it: A427, peptide 30 µM, n = 4, ± SEM. As for the experimental part:
(§1) A427 (ATCC HTB-53), A549 (ATCC CCL-185), H1975 (ATCC CRL-5908), PANC-1 (ATCC CRL-1469), MIA PaCa-2 (ATCC CRL-1420), and Capan-1 (ATCC HTB-79) cells were purchased from ATCC, and each cell was cultured in medium supplemented with 10% fetal bovine serum (FBS), according to the protocol recommended by the manufacture.
(§2) For evaluation of the effect of peptides on Ras–ERK pathways, phosphorylation of ERK was measured by Phospho-ERK1 (T202/Y204)/ERK2 (T185/Y187) DuoSet IC ELISA (DYC1018B-2, R&D SYSTEMS, MN, USA) according to the protocol supplied by the manufacturer. After 16 h serum starvation, cells were treated with peptides diluted in FBS-free medium for 1 h, and then treated with peptides diluted in FBS-containing medium for an additional 1 h. Phosphorylation rate of ERK (%) was calculated based on no serum stimulation as 0% and serum stimulation without peptide treatment as 100%.
A general note: In an ELISA, binding on a coated surface is turned into a signal by an enzyme label.

For test [2], the system named is phosphorylation of ERK in PANC-1 cells. Described as above. It is filed as cell-based, human. The note with it: PANC-1, peptide 30 µM, n = 4, ± SEM. As for the experimental part:
as §1, §2

Test [3] concerns PANC-1 subcutaneous xenografts. Description: Anti-cancer efficacy in PANC-1 subcutaneous xenografts. Type of test: in vivo, mice. The following applies: 40 mg/kg iv once every 2 days for 4 weeks. As for the experimental part: Animal experiments were carried out at UNITECH Co. Ltd. in accordance with the guidelines of the Animal Care and Use Committee of UNITECH (approval No. AGR IMF-190807A-31, -33, AGR IMF-20615A-30). To establish subcutaneous xenograft tumor models, 1 × 10^7 cells/150 µL of PANC-1 cells were subcutaneously injected into the flank of Crlj:SHO-Prkdc^scidHr^hr female mice (7 weeks old; Charles River Laboratories). KS-58 was dissolved in DMSO and then tenfold diluted by saline. The peptide solution was injected intravenously to the mice bearing tumors once every 2 days for 4 weeks (40 mg/kg, n = 10). The tumor growth rate was recorded every 3 days by measuring the major and minor axes of the tumors formed with a digital caliper. Measurements were transformed into tumor volume using the formula: tumor volume (mm^3) = major axis × minor axis^2 × 0.5.

Several values for one entry are separate records, joined by “and”; a condition that tells them apart may be missing. Equal entries are not always repeated. Starred links: 1 amine or outer side, 2 acyl side, 3 side chain; linkers in the order of their positions; H or OH if unused. Positions of bridges follow the written chain, without caps; N, C: chain ends. Non-standard residues stand in square brackets, D forms with d. Residues, ends and D or L forms follow the SMILES beside them. Phe(4-F) = N[C@@H](Cc1ccc(F)cc1)C(=O)O; X1 = CCCCCCC[C@H](N[*:1])C(=O)[*:2]; Nle = CCCC[C@H](N)C(=O)O; X2 = C(C[*:1])C[*:2]; βAla = NCCC(=O)O

For `CCCCCCC[C@@H]1NC(=O)[C@@H]2CSCCCSC[C@@H](NC(=O)[C@H](Cc3c[nH]c4ccccc34)NC(=O)[C@@H]3CCCN3C(=O)[C@H](CC(=O)O)NC(=O)[C@H](Cc3ccc(F)cc3)NC(=O)[C@H](CO)NC1=O)C(=O)NCCC(=O)N1CCC[C@H]1C(=O)N[C@@H](CCCC)C(=O)N2` [KS-58, c[βAla-Pro-Nle-c(Cys-Anon-Ser-4fF-Asp-Pro-Trp-^DCys)]] (cyclo([βAla]P[Nle]C[X1]S[Phe(4-F)]DPW[dC]); linker 4-11 via X2), the “pERK (%)” value was 26.0% and 26.0 ± 6.0% in test [1]; 57.6% and 57.6 ± 7.6% in test [2]. Further, the “Tumor growth (tumor volume) in subcutaneous xenografts” value in test [3] is “significant tumor growth suppression”.

(Values after paper PMC7730438, “Generation of KS-58 as the first K-Ras(G12D)-inhibitory peptide presenting anti-cancer activity in vivo” (Scientific Reports, 2020).)
